Patent US8835644B2, “Broad spectrum benzothiophene-nitrothiazolide and other antimicrobials” (University of Virginia Patent Foundation, priority 2009, dated 2014)
In brackets after ≈: the same amount, converted by molar mass. Like-named read-outs stand apart in the source and are kept apart here. Marks after values point to notes of the source that are not given here. Values belong to the molecule of their own block, whether it stands above or below them.

What was measured:
C. difficile [1] = assay: MIC by agar dilution, C. difficile; assay type: cell-based, Clostridium difficile; details: read-out: MIC C. difficile
Protocol: A standard broth dilution protocol was used in 96 well microplates containing a standard dilution of the microorganism to be tested in 100 microliters of the appropriate medium. Appropriate medium: E. coli, LB medium; Staphylococcus strains, Trypticase Soy; and for H. pylori and C. jejuni, Brain Heart Infusion. The compounds to be tested were set at 32 μg/ml in 200 microliters in well one and then serially diluted to provide a range from 32 to 0.06. The wells were scored visually at 24 h. The well where there was no growth was recorded as the MIC. […]
(§1) Representative compounds of the invention were tested in a series of assays against a series of organisms as described above. […] The organisms tested include, C. difficile, H. pylori, C. jejuni, MRSA, S. epidermidis, and E. coli. S. epidermidis and E. coli were tested in the plank and biofilm assay. A disk diffusion assay was also used for C. difficile. Direct PFOR enzyme assays were also performed. All analogues and derivatives were not tested on every organism in every type of assay (the “-” in each table means that it was not tested).

H. pylori = assay: MIC testing by broth dilution, H. pylori; assay type: cell-based, Helicobacter pylori
Method in brief: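 Helicobacter pylori was tested using a standard broth dilution method in 96 well microplates, each well holding a standard dilution of the organism in 100 microliters of Brain Heart Infusion. Compounds started at 32 μg/ml in 200 microliters in the first well and were serially diluted from 32 to 0.06. Wells were read visually at 24 h, and the MIC was the well with no growth.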

C. jejuni = assay: MIC testing by broth dilution, C. jejuni; assay type: cell-based, Campylobacter jejuni
Method in brief: (§2)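 Twofold broth microdilution from 32 μg/ml down to 0.06, in LB for E. coli, Trypticase Soy for S. epidermidis (planktonic) and Brain Heart Infusion for C. jejuni. C. difficile: anaerobic disk diffusion on Wilkins Chalgrin agar, inhibition zone expressed as a ratio to the NTZ zone.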

MRSA = assay: MIC testing by broth dilution, MRSA; assay type: cell-based, Staphylococcus aureus
Method in brief: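 Values are broth-dilution MICs, defined as the well showing no growth on visual reading after 24 h; the tested range was 32 to 0.06 μg/ml, in organism-specific media (LB, Trypticase Soy, Brain Heart Infusion). The C. difficile entries come instead from anaerobic Kirby-Bauer disk zones, normalised to NTZ.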

S. epidermidis = assay: MIC testing by broth dilution, S. epidermidis plank; assay type: cell-based, Staphylococcus epidermidis
Method in brief: as §2

S. epidermidis biofilm = S. epidermidis biofilm assay (activity tables); assay type: cell-based, Staphylococcus epidermidis
Method in brief: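 Overnight TSB cultures diluted to OD600 0.01 and grown static with compound (triplicate) at 37° C for 16 h; turbidity recorded for growth. Biofilm: washed wells ethanol-fixed, stained with 0.5% crystal violet, A570 read before and after 95% ethanol extraction; mean ± SD.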

E. coli = assay: MIC testing by broth dilution, E. coli plank; assay type: cell-based, Escherichia coli
Method in brief: as §2

E. coli biofilm = E. coli biofilm assay (activity tables); assay type: cell-based, Escherichia coli; details: biofilm, read-out: MIC E. coli Biofilm
Method in brief: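 E. coli strain 042 inoculated 1:100 with NTZ-containing medium and grown statically at 37 °C for 24 h. Growth measured by turbidity or plate counts (cfu/ml); biofilm stained with 0.5% crystal violet and read at 570 nm; triplicate, mean ± SD.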

C. difficile [2] = assay: Disk diffusion (Kirby Bower), C. difficile; assay type: cell-based, Clostridium difficile; details: for Disk Diff (%) C. difficile: Nitazoxanide = 100
Method in brief: as §2

[3] = test system: PFOR (pyruvate ferredoxin oxidoreductase); assay: Direct PFOR enzyme assay; assay type: biochemical
Protocol: as §1

[4] = Furan analogues table, read-out: MIC H. pylori
[5] = Furan analogues table, read-out: MIC C. jejuni
[6] = Furan analogues table, read-out: MIC MRSA
[7] = planktonic, Furan analogues table, read-out: MIC S. epidermidis Plank
[8] = planktonic, Furan analogues table, read-out: MIC E. coli Plank
[9] = Thiophene analogues table, read-out: MIC H. pylori
[10] = Thiophene analogues table, read-out: MIC C. jejuni
[11] = Thiophene analogues table, read-out: MIC MRSA
[12] = planktonic, Thiophene analogues table, read-out: MIC S. epidermidis Plank
[13] = planktonic, Thiophene analogues table, read-out: MIC E. coli Plank

SMILES: O=C(Nc1ncc([N+](=O)[O-])s1)c1ccc([N+](=O)[O-])o1 [VPC16b1007]
- MIC (C. difficile [1]; Furan analogues table): 28.2 µM (≈ 8.01 µg/mL)
- MIC (H. pylori; [4]): 21.1 µM (≈ 6 µg/mL)
- MIC (C. jejuni; [5]): 7.0 µM (≈ 1.99 µg/mL)
- MIC (MRSA; [6]): 112.6 µM (≈ 32 µg/mL)
- MIC (S. epidermidis; [7]): 28.1 µM (≈ 7.99 µg/mL)
- MIC S. epidermidis Biofilm (S. epidermidis biofilm; Furan analogues table): 56.3 µM (≈ 16 µg/mL)
- MIC (E. coli; [8]): 14.1 µM (≈ 4.01 µg/mL)
- MIC (E. coli biofilm; Furan analogues table): 26.4 µM (≈ 7.5 µg/mL)
- Disk Diff (%) C. difficile (C. difficile [2]; Furan analogues table): 102 ± 8%

- MIC (H. pylori; [4]): 0.6 µM (≈ 0.174 µg/mL)
- MIC (C. jejuni; [5]): 110.6 µM (≈ 32 µg/mL)
- MIC (MRSA; [6]): 57.0 µM (≈ 16.5 µg/mL)
- MIC (S. epidermidis; [7]): 110.6 µM (≈ 32 µg/mL)
- MIC S. epidermidis Biofilm (S. epidermidis biofilm; Furan analogues table): 110.6 µM (≈ 32 µg/mL)
- MIC (E. coli; [8]): 110.6 µM (≈ 32 µg/mL)
- MIC (E. coli biofilm; Furan analogues table): 110.6 µM (≈ 32 µg/mL)
- PFOR inhibition relative to nitazoxanide (=100) ([3]; Furan analogues table): 70%
SMILES: O=C(Nc1ncc([N+](=O)[O-])s1)c1cc2ccccc2o1 [VPC161144]

- MIC (C. difficile [1]; Clostridioides difficile, Thiophene analogues table): 11.8 µM (≈ 4.01 µg/mL)
- MIC (H. pylori; Helicobacter pylori, Thiophene analogues table, read-out: MIC H. pylori): 2.2 µM (≈ 0.748 µg/mL)
- MIC (C. jejuni; Campylobacter jejuni, Thiophene analogues table, read-out: MIC C. jejuni): 5.9 µM (≈ 2 µg/mL)
- MIC (MRSA; Staphylococcus aureus, MRSA, Thiophene analogues table, read-out: MIC MRSA): 2.9 µM (≈ 0.985 µg/mL)
- MIC (S. epidermidis; Staphylococcus epidermidis, planktonic, Thiophene analogues table, read-out: MIC S. epidermidis Plank): 5.9 µM (≈ 2 µg/mL)
- MIC S. epidermidis Biofilm (S. epidermidis biofilm; Thiophene analogues table): 11.8 µM (≈ 4.01 µg/mL)
- MIC (E. coli; Escherichia coli, planktonic, Thiophene analogues table, read-out: MIC E. coli Plank): 94.2 µM (≈ 32 µg/mL)
- MIC (E. coli biofilm; Escherichia coli, Thiophene analogues table): 94.2 µM (≈ 32 µg/mL)
SMILES: O=C(Nc1ncc([N+](=O)[O-])s1)c1sc2ccccc2c1Cl [VPC161181]
- Disk Diff (%) C. difficile (C. difficile [2]; Thiophene analogues table): 72%

- MIC (H. pylori; [9]): 0.7 µM (≈ 0.179 µg/mL)
- MIC (C. jejuni; [10]): 5.9 µM (≈ 1.51 µg/mL)
- MIC (MRSA; [11]): 23.5 µM (≈ 6 µg/mL)
- MIC (S. epidermidis; [12]): 15.7 µM (≈ 4.01 µg/mL)
- MIC (E. coli; [13]): 125.4 µM (≈ 32 µg/mL)
- PFOR inhibition relative to nitazoxanide (=100) ([3]; Thiophene analogues table): 96%
SMILES: O=C(Nc1ncc([N+](=O)[O-])s1)c1ccsc1 [VPC16a1008]
- Disk Diff (%) C. difficile (C. difficile [2]; Thiophene analogues table): 100%

- MIC (H. pylori; broth dilution, Brain Heart Infusion, 24 h, read-out: MIC (μM) H. pylori): 5.7 µM (≈ 2 µg/mL)
- MIC (C. jejuni; broth dilution, Brain Heart Infusion, 24 h, read-out: MIC (μM) C. jejuni): 34.1 µM (≈ 12 µg/mL)
- MIC (MRSA; broth dilution, Trypticase Soy, 24 h, read-out: MIC (μM) MRSA): 11.4 µM (≈ 4.01 µg/mL)
- MIC (S. epidermidis; broth dilution, Trypticase Soy, 24 h, read-out: MIC (μM) S. epidermidis Plank): 8.5 µM (≈ 2.99 µg/mL)
- MIC (E. coli; broth dilution, LB medium, 24 h, read-out: MIC (μM) E. coli Plank): 91.0 µM (≈ 32 µg/mL)
- PFOR inhibition relative to nitazoxanide (=100) [3]: 49** %
SMILES: O=C(Nc1nc(Cl)c([N+](=O)[O-])s1)c1cccc(C(F)(F)F)c1 [VPC162088]
- Disk Diffusion (%) C. difficile (C. difficile [2]; zone of inhibited growth as relative ratio to the zone for NTZ): 76%

SMILES: O=C(Nc1ncc([N+](=O)[O-])s1)c1ccco1 [VPC161124]
- MIC (H. pylori; [4]): 1.0 µM (≈ 0.239 µg/mL)
- MIC (C. jejuni; [5]): 8.4 µM (≈ 2.01 µg/mL)
- MIC (MRSA; [6]): 50.2 µM (≈ 12 µg/mL)
- MIC (S. epidermidis; [7]): 66.9 µM (≈ 16 µg/mL)
- MIC S. epidermidis Biofilm (S. epidermidis biofilm; Furan analogues table): 66.9 µM (≈ 16 µg/mL)
- MIC (E. coli; [8]): 133.8 µM (≈ 32 µg/mL)
- MIC (E. coli biofilm; Furan analogues table): 33.4 µM (≈ 7.99 µg/mL)
- Disk Diff (%) C. difficile (C. difficile [2]; Furan analogues table): 100%
- PFOR inhibition relative to nitazoxanide (=100) ([3]; Furan analogues table): 82%

SMILES: O=C(Nc1sc([N+](=O)[O-])cc1[N+](=O)[O-])c1cccc(C(F)(F)F)c1 [VPC16b1092]
- MIC (H. pylori; 2-amino-3,5-dinitrothiophene analogues table, read-out: MIC H. pylori): 0.5 µM (≈ 0.181 µg/mL)
- MIC (C. jejuni; 2-amino-3,5-dinitrothiophene analogues table, read-out: MIC C. jejuni): 2.1 µM (≈ 0.759 µg/mL)
- MIC (MRSA; 2-amino-3,5-dinitrothiophene analogues table, read-out: MIC MRSA): 1.4 µM (≈ 0.506 µg/mL)
- MIC (S. epidermidis; planktonic, 2-amino-3,5-dinitrothiophene analogues table, read-out: MIC S. epidermidis Plank): 0.2 µM (≈ 0.0723 µg/mL)
- MIC (E. coli; planktonic, 2-amino-3,5-dinitrothiophene analogues table, read-out: MIC E. coli Plank): 88.6 µM (≈ 32 µg/mL)
- Disk Diff (%) C. difficile (C. difficile [2]; 2-amino-3,5-dinitrothiophene analogues table): 59%
- PFOR inhibition relative to nitazoxanide (=100) ([3]; * biphasic initial inhibition followed by uninhibited rate, ** caused some precipitant in extract): 87** %

SMILES: O=C(Nc1ncc([N+](=O)[O-])s1)c1cc2ccccc2s1 [VPC161180]
- MIC (C. difficile [1]; Thiophene analogues table): 13.1 µM (≈ 4 µg/mL)
- MIC (H. pylori; [9]): 2.5 µM (≈ 0.763 µg/mL)
- MIC (C. jejuni; [10]): 9.8 µM (≈ 2.99 µg/mL)
- MIC (MRSA; [11]): 6.6 µM (≈ 2.02 µg/mL)
- MIC (S. epidermidis; [12]): 13.1 µM (≈ 4 µg/mL)
- MIC S. epidermidis Biofilm (S. epidermidis biofilm; Thiophene analogues table): 19.7 µM (≈ 6.02 µg/mL)
- MIC (E. coli; [13]): 104.8 µM (≈ 32 µg/mL)
- MIC (E. coli biofilm; Thiophene analogues table): 104.8 µM (≈ 32 µg/mL)
- Disk Diff (%) C. difficile (C. difficile [2]; Thiophene analogues table): 81%
